According to patent publication US4346089A, “1-Aza-4-oxa-bicyclo [4,4,0]decane derivatives” (Beecham Group Limited, priority 1980, dated 1982):
Like-named read-outs stand apart in the source and are kept apart here.

Columns and labels:
Assay type in all cases: in vivo
intragastric pressure [1] = test: Increase in intragastric pressure in the rat (gastric activity); settings: sc, 40 min, conscious starved rats, subcutaneous, 40 minute period after administration, read-out: minimum dose for activity (increase in intragastric pressure), Dose mg/kg Subcutaneously
Protocol: Increase in intragastric pressure in the rat
Intragastric pressure changes were recorded from previously starved conscious but retrained rats using a saline filled catheter inserted into the lumen of the stomach via a permanent gastric fistula. The catheter was connected to a physiological pressure transducer and pressure changes recorded on a hot wire pen recorder. In each animal pre-dose period of 40 minutes was allowed to obtain a measure of spontaneous activity. An index of activity was obtained by measuring the average height of pressure waves during 10 minute periods. Values for 4 such periods were obtained during assessment of spontaneous activity and for the 40 minute period after the subcutaneous administration of the compounds. Students `t` test was applied to the difference in average values obtained for spontaneous and post-compound activity.

[2] = tested on: apomorphine induced climbing; test: Inhibition of apomorphine induced climbing in the mouse; settings: apomorphine 1 mg/kg s.c.; for ED50: Mus musculus, sc, scored at 10, 20 and 30 minutes, read-out: Dose mg/kg ED50 (dose that inhibits the apomorphine response by 50%)
Protocol: Compounds were also tested for their ability to inhibit apomorphine induced climbing in the mouse. Inactivity in this test may be indicative of a low propensity to produce extra-pyramidal side-effects in man.
The method used for this test is as set out below:
Inhibition of apomorphine induced climbing in the mouse
The test is based on that described by Protais, P., Constantin, J. and Schwartz, J. C. (1976), Psychopharmacology, 50, 1-6.
Apomorphine 1 mg/kg s.c. induces mice to climb the wall of a wire cage (inverted food hopper--11×7.5×18 cm high). Mice acclimatised in their home cages in groups of 5 are placed under the hoppers immediately after the injection of apomorphine 1 mg/kg s.c. At 10, 20 and 30 minutes after injection climbing behaviour is scored. The mice are observed for 30 seconds and scored according to the position in which they spend the majority of time, score 0--four paws on floor of cage; score 1--fore paws only on walls; score 2--all paws on wall of cage.
The scores at all 3 times for each mouse are summed for apomorphine only and for apomorphine plus compound groups of mice.
Total scores are then calculated as the percentage inhibition of climbing as follows: [formula]
From graphical representation of the results ED50 values (the dose that inhibits the apomorphine response by 50%) are then obtained.

intragastric pressure [3] = test: Increase in intragastric pressure in the rat (gastric activity); settings: conscious starved rats, oral, read-out: minimum dose for activity (increase in intragastric pressure), Dose mg/kg Orally

Row | SMILES | minimal effective dose (intragastric pressure [1]) | ED50 ([2]; route of compound not given) | minimal effective dose (intragastric pressure [3]) | Dose mg/kg ED50: Ia at stated dose (inhibition of apomorphine induced climbing) ([2]; at 10 mg/kg po) | Dose mg/kg ED50: Ia at stated dose (inhibition of apomorphine induced climbing) ([2]; at 25 mg/kg, route of compound not given)
1 | COc1cc(N)c(Cl)cc1C(=O)N[C@H]1CCN2CCOC[C@@H]2C1 (relative stereo) [Example 2, (±) 4-Amino-5-chloro-2-methoxy-N-(8α-1-aza-6α-H-4-oxabicyclo [4,4,0]decyl)benzamide] | 0.5 mg/kg | 70 mg/kg | 0.5 mg/kg | – | –
2 | COc1cc(N)c(Cl)cc1C(=O)N[C@H]1CCN2CCOC[C@H]2C1 (relative stereo) [Example 4, (±) 4-Amino-5-chloro-2-methoxy-N-(8β-1-aza-6α-H-4-oxabicyclo [4,4,0]delcyl)benzamide] | 1 mg/kg | 30 mg/kg | – | – | –
3 | COc1cc(N)c(Cl)cc1C(=O)N[C@H]1CCN2CCSC[C@H]2C1 (relative stereo) [Example 10, (±) 4-Amino-5-chloro-2-methoxy-N-(8β-aza-6α-H-4-thiabicyclo [4,4,0]decyl)benzamide] | 1 mg/kg | – | – | – | –
4 | COc1cc(N)c(Cl)cc1C(=O)N[C@@H]1CCN2[C@H](COC[C@H]2c2ccccc2)C1 (relative stereo) [Example 14, (±) 4-Amino-5-chloro-2-methoxy-N-(8β-1-aza-2β-phenyl-6α-H-4-oxabicyclo[4,4,0]decyl)benzamide monohydrate] | 1 mg/kg | – | – | Ia at 10 po | –
5 | COc1cc(N)c(Cl)cc1C(=O)N[C@H]1CCN2CC[S+]([O-])C[C@H]2C1 (mixture of isomers) [Example 18, (±) 4-Amino-5-chloro-2-methoxy-N-(8β-1-aza-6α-H-4-oxothiabicyclo[4,4,0]decyl)benzamide] | 1 mg/kg | – | – | – | –
6 | COc1cc(N)c(Cl)cc1C(=O)NC1CCN2CC[S+]([O-])CC2C1 (racemic) [Example 16, (±) 4-Amino-5-chloro-2-methoxy-N-(8α,β-1-aza-6α-H-4-oxothiabicyclo[4,4,0]decyl)benzamide] | 5 mg/kg | – | – | Ia at 10 po | –
7 | COc1cc(N)c(Cl)cc1C(=O)N[C@H]1CCN2[C@H](COC[C@H]2C)C1 (relative stereo) [Example 6, (±) 4-Amino-5-chloro-2-methoxy-N-(8α-1-aza-2β-methyl-6α-H-4-oxabicyclo[4,4,0]decyl)benzamide] | 0.2 mg/kg | 40 mg/kg | 0.5 mg/kg | – | –
8 | COc1cc(N)c(Cl)cc1C(=O)N[C@H]1CCN2CCSC[C@@H]2C1 (relative stereo) [Example 8, (±) 4-Amino-5-chloro-2-methoxy-N-(8α-1-aza-6α-H-4-thiabicyclo [4,4 ,0]decyl)benzamide] | 5 mg/kg | – | – | – | Ia at 25
9 | COc1cc(N)c(Cl)cc1C(=O)N[C@H]1CCN2[C@H](COC[C@H]2c2ccccc2)C1 (relative stereo) [Example 12, (±) 4-Amino-5-chloro-2-methoxy-N-(8α-1-aza-2β-phenyl-6α-H-4-oxabicyclo[4,4,0]decyl)benzamide] | – | 30 mg/kg | – | – | –
